Measured values as given in patent publication US20240246946A1, “MODULATORS OF TREX1” (Constellation Pharmaceuticals, Inc., priority 2021, published 2024).

What was measured:
[1] = target: T1, human TREX2 (residues M44-A279) (Homo sapiens, UniProt Q9BQ50); assay: hTREX2 Biochemical Assay (fluorescence, dsDNA substrate degradation); settings: biochemical selectivity for hTREX1 vs hTREX2
T1 construct: human TREX2 (residues M44-A279, expressed in E. coli); made in house; host or cells: E. coli
T1 sequence (Q9BQ50 44-279 isoform Q9BQ50-1): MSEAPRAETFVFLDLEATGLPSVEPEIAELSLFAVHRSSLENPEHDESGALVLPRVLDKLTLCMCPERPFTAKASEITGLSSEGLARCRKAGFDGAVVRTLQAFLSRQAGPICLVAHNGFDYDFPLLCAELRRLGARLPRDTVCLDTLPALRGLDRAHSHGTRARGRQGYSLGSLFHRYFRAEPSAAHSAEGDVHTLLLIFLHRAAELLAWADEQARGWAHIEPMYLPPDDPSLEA
How it was run: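 Fluorogenic dsDNA degradation read at 615 nm (570 nm excitation) after EDTA quench. Final 60 nM substrate, 50 pM His-Tev-tagged enzyme, 5 mM MgCl2, pH 7.4, 1.0% DMSO; 4 h compound–enzyme preincubation then 18 h reaction, both 25 °C; 10-point titration.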

[2] = target: T2, full length human TREX1 (Homo sapiens, UniProt Q9NSU2); assay: hTREX1 Biochemical Assay (fluorescence, dsDNA substrate degradation); settings: biochemical, read-out: hTREX1 IC50
T2 construct: N-terminally His-Tev tagged full length human TREX1; made in house; host or cells: E. coli
T2 sequence (Q9NSU2 1-314): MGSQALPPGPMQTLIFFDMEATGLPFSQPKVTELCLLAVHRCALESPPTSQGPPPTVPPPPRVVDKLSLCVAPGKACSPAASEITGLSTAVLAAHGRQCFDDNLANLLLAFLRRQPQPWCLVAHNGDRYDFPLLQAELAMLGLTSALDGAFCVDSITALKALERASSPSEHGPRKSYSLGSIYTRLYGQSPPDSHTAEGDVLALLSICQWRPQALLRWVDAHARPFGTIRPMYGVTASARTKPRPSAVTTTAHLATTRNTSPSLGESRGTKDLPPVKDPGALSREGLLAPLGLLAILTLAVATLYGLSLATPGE
How it was run: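 Fluorescence rises as enzyme degrades a quenched TEX615-labelled dsDNA substrate (60 nM) in 50 mM Tris, 150 mM NaCl, 5 mM MgCl2, pH 7.4. Full-length His-Tev-tagged human TREX1, 4 pM, sits with compound 4 hours at 25° C before substrate; reaction 18 hours, stopped with EDTA.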

[3] = target: T3, full length mouse TREX1 (Mus musculus, UniProt Q91XB0); assay: mTREX1 Biochemical Assay (fluorescence, dsDNA substrate degradation); settings: biochemical, read-out: mTREX1 IC50
T3 construct: N-terminally His-Tev tagged full length mouse TREX1; made in house; host or cells: E. coli
T3 sequence (Q91XB0 1-314): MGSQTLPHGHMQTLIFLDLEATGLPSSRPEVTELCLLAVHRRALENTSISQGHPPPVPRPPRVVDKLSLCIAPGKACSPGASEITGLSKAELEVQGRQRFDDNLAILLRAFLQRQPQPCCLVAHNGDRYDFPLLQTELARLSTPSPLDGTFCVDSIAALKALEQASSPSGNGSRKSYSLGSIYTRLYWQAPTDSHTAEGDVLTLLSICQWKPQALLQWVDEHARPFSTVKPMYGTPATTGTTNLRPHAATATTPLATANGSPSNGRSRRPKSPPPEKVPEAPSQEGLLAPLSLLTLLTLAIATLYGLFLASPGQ
How it was run: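 Reaction run 18 h at 25° C. with 60 nM TEX615/quencher-labelled dsDNA and 6 pM mouse TREX1 in Tris buffer (pH 7.4, 5 mM MgCl2, 1.0% DMSO), enzyme having sat 4 h with compound across 10 concentrations. EDTA quench; substrate degradation measured as fluorescence increase.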

Structure (SMILES) | hTREX1 vs hTREX2 selectivity [1] | IC50 [2] [nM] | IC50 [3] [nM]
CC(c1nc(C(=O)Nc2cnoc2)c(O)c(=O)n1C)C(c1cnn(CC(C)(C)O)c1)c1ccccc1Cl (single isomer, unassigned) [Example 86 D2E2] | A (A = <25 fold selective for hTREX1) | > 10 | > 10
CC(c1nc(C(=O)Nc2cnoc2)c(O)c(=O)n1C)C(c1cnn(CC2COC2)c1)c1ccccc1Cl (single isomer, unassigned) [Example 88 D1E2] | A (A = <25 fold selective for hTREX1) | 1 to 10 | > 10
CC(c1nc(C(=O)Nc2cnoc2)c(O)c(=O)n1C)C(c1cnn(CC2COC2)c1)c1ccccc1Cl (single isomer, unassigned) [Example 88 D2E1] | A (A = <25 fold selective for hTREX1) | > 10 | > 10
CC(c1nc(C(=O)Nc2cnoc2)c(O)c(=O)n1C)C(c1cnn(CC2COC2)c1)c1ccccc1Cl (single isomer, unassigned) [Example 88 D2E2] | A (A = <25 fold selective for hTREX1) | > 10 | > 10
CC(c1nc(C(=O)Nc2cnoc2)c(O)c(=O)n1C)C(c1cc(F)ccc1Cl)c1cn(C)nc1C#N (single isomer, unassigned) [Example 89 D1E1] | A (A = <25 fold selective for hTREX1) | > 10 | > 10
CC(c1nc(C(=O)Nc2cnoc2)c(O)c(=O)n1C)C(c1cnn(CC(C)(C)O)c1)c1cc(F)ccc1Cl (single isomer, unassigned) [Example 92 D1E2] | A (A = <25 fold selective for hTREX1) | 1 to 10 | > 10
CC(c1nc(C(=O)Nc2cnoc2)c(O)c(=O)n1C)C(c1cnn(CC2COC2)c1)c1cc(F)ccc1Cl (single isomer, unassigned) [Example 94 D1E2] | A (A = <25 fold selective for hTREX1) | > 10 | > 10
Cc1n[nH]c(C)c1C(c1ccccc1C#N)C(C)c1nc(C(=O)Nc2cnoc2)c(O)c(=O)n1C (single isomer, unassigned) [Example 95 D2E1] | A (A = <25 fold selective for hTREX1) | > 10 | > 10
Cc1n[nH]c(C)c1C(c1ccccc1C#N)C(C)c1nc(C(=O)Nc2cnoc2)c(O)c(=O)n1C (single isomer, unassigned) [Example 95 D2E2] | A (A = <25 fold selective for hTREX1) | > 10 | > 10
CC(c1nc(C(=O)Nc2cnoc2)c(O)c(=O)n1C)C(c1ccccc1Cl)c1cnn(C)c1C#N (single isomer, unassigned) [Example 96 D1E2] | A (A = <25 fold selective for hTREX1) | > 10 | > 10
CC(c1nc(C(=O)Nc2cnoc2)c(O)c(=O)n1C)C(c1ccccc1Cl)c1cnn(C)c1C#N (single isomer, unassigned) [Example 96 D2E1] | A (A = <25 fold selective for hTREX1) | > 10 | > 10
COCCn1cc(C(c2cc(F)ccc2Cl)C(C)c2nc(C(=O)Nc3cnoc3)c(O)c(=O)n2C)cn1 (single isomer, unassigned) [Example 97 D1E2] | A (A = <25 fold selective for hTREX1) | 1 to 10 | > 10
CC(c1nc(C(=O)Nc2cnoc2)c(O)c(=O)n1C)C(c1cnn(CCOC(F)(F)F)c1)c1cc(F)ccc1Cl (single isomer, unassigned) [Example 98 D1E2] | A (A = <25 fold selective for hTREX1) | > 10 | 1 to 10
CC(c1nc(C(=O)Nc2cnoc2)c(O)c(=O)n1C)C(c1cnn(CC(C)(C)C#N)c1)c1cc(F)ccc1Cl (single isomer, unassigned) [Example 99 D1E2] | B (B = 25 to 50-fold selective for hTREX1) | 1 to 10 | 1 to 10
CC(c1nc(C(=O)Nc2cnoc2)c(O)c(=O)n1C)C(c1cnn(C(C)(C)CC#N)c1)c1cc(F)ccc1Cl (single isomer, unassigned) [Example 100 D1E2] | A (A = <25 fold selective for hTREX1) | 1 to 10 | > 10
CC(c1nc(C(=O)Nc2cnoc2)c(O)c(=O)n1C)C(c1cnn(CCOC(F)(F)F)c1)c1cc(F)ccc1C#N (single isomer, unassigned) [Example 101 D1E1] | A (A = <25 fold selective for hTREX1) | > 10 | > 10
CC(c1nc(C(=O)Nc2cnoc2)c(O)c(=O)n1C)C(c1cnn(CC(F)F)c1)c1cc(F)ccc1C#N (single isomer, unassigned) [Example 102 D1E1] | A (A = <25 fold selective for hTREX1) | > 10 | > 10
COCCn1cc(C(c2cc(F)ccc2C#N)C(C)c2nc(C(=O)Nc3cnoc3)c(O)c(=O)n2C)c(C)n1 (single isomer, unassigned) [Example 103 D2E2] | A (A = <25 fold selective for hTREX1) | > 10 | > 10
COCCn1ncc(C(c2cc(F)ccc2C#N)C(C)c2nc(C(=O)Nc3cnoc3)c(O)c(=O)n2C)c1C (single isomer, unassigned) [Example 104 D1E2] | A (A = <25 fold selective for hTREX1) | > 10 | > 10
COCCn1ncc(C(c2cc(F)ccc2C#N)C(C)c2nc(C(=O)Nc3cnoc3)c(O)c(=O)n2C)c1C (single isomer, unassigned) [Example 104 D2E1] | A (A = <25 fold selective for hTREX1) | > 10 | > 10
COCCn1ncc(C(c2cc(F)ccc2C#N)C(C)c2nc(C(=O)Nc3cnoc3)c(O)c(=O)n2C)c1C (single isomer, unassigned) [Example 104 D2E2] | B (B = 25 to 50-fold selective for hTREX1) | 1 to 10 | > 10
CC(c1nc(C(=O)Nc2cnoc2)c(O)c(=O)n1C)C(c1cnn(C(C)C)c1)c1ccccc1C#N (single isomer, unassigned) [Example 105 D1E1] | A (A = <25 fold selective for hTREX1) | > 10 | > 10
CC(c1nc(C(=O)Nc2cnoc2)c(O)c(=O)n1C)C(c1cnn(C(C)C)c1)c1ccccc1C#N (single isomer, unassigned) [Example 105 D2E2] | A (A = <25 fold selective for hTREX1) | > 10 | > 10
CC(c1nc(C(=O)Nc2cnoc2)c(O)c(=O)n1C)C(c1cnn(C2COC2)c1)c1ccccc1C#N (single isomer, unassigned) [Example 106 D1E2] | A (A = <25 fold selective for hTREX1) | > 10 | > 10
CC(c1nc(C(=O)Nc2cnoc2)c(O)c(=O)n1C)C(c1cnn(C2COC2)c1)c1ccccc1C#N (single isomer, unassigned) [Example 106 D2E1] | B (B = 25 to 50-fold selective for hTREX1) | > 10 | > 10
COCCn1ncc(C(c2cc(F)ccc2Cl)C(C)c2nc(C(=O)Nc3cnoc3)c(O)c(=O)n2C)c1C (single isomer, unassigned) [Example 108 D1E2] | A (A = <25 fold selective for hTREX1) | > 10 | > 10
COCCn1ncc(C(c2cc(F)ccc2Cl)C(C)c2nc(C(=O)Nc3cnoc3)c(O)c(=O)n2C)c1C (single isomer, unassigned) [Example 108 D2E2] | A (A = <25 fold selective for hTREX1) | > 10 | > 10
